{
  "source": "patent US20050266088A1",
  "about": "“Formulation for fast dissolution of lipophilic compounds” (Rijksuniversiteit Groningen, priority 2002, published 2005)",
  "assay": "Dissolution experiments on tablets (Prolabo dissolution apparatus)",
  "format": "physicochemical",
  "conditions": "for dissolution rate of the sugar matrix (Anthrone assay): tablets with diazepam, water, 37° C., 100 rpm",
  "procedure": "After compaction the tablets were weighed and subsequently submitted to dissolution experiments.\nDissolution was performed on a Prolabo dissolution apparatus, Rowa Techniek B.V. All experiments were conducted at 37° C. in 1000 mL under constant stirring with 100 rpm. Tablets prepared from physical mixtures and solid dispersions were analysed in triplicate.\nTo determine the sugar concentrations the Anthrone assay was used. (Scott et al. 1953) Samples were taken at appropriate intervals during the dissolution. […] Due to the enthalpy of mixing, the sample was heated to its boiling point. The boiling mixture was then cooled to room temperature. After 45 minutes the sample was vortexed and […] of sample was analysed in the plate reader at 630 nm. […] In every Anthrone assay a calibration curve of the appropriate sugar in the appropriate medium was established.",
  "data": [
    {"compound": "OC[C@H]1O[C@@](CO)(O[C@H]2O[C@H](CO)[C@@H](O)[C@H](O)[C@H]2O)[C@@H](O)[C@@H]1O", "note": "[sucrose]", "values": [
      {"measurement": "dissolution rate of the sugar matrix (Anthrone assay)", "result": "dissolve faster compared to the inulins"}
    ]},
    {"compound": "OC[C@H]1O[C@H](O[C@H]2O[C@H](CO)[C@@H](O)[C@H](O)[C@H]2O)[C@H](O)[C@@H](O)[C@@H]1O", "note": "[trehalose]", "values": [
      {"measurement": "dissolution rate of the sugar matrix (Anthrone assay)", "result": "dissolve faster compared to the inulins"}
    ]},
    {"compound": "CN1C(=O)CN=C(c2ccccc2)c2cc(Cl)ccc21", "note": "[diazepam, Diazepam]", "values": [
      {"measurement": "release of drug from physical mixture tablets", "result": "fast compared to the solid dispersions"},
      {"measurement": "release of drug from solid dispersion tablets", "result": "fast release"}
    ]}
  ]
}
